Results reported in article PMC9572083, “Hybrids of 1,4-Quinone with Quinoline Derivatives: Synthesis, Biological Activity, and Molecular Docking with DT-Diaphorase (NQO1)” (Molecules, 2022).

Key:
[1] = target: T1, NQO1 (DT-diaphorase, EC 1.6.5.5, human recombinant) (Homo sapiens, UniProt P15559); test: NQO1 substrate NADPH recycling enzymatic assay; type: biochemical; conditions: compound 10 µmol/L, pH 7.4, 25 °C, absorbance at 340 nm
T1 construct: purchased Sigma-Aldrich
Procedure: The interaction between 1,4-quinone moiety of hybrid and NQO1 protein leads to reduction in quinone to hydroquinone and production of reactive oxide form (ROS). According to a literature method, the ability of hybrids 11–14 and streptonigrin (ST) to be a substrate for NQO1 was examined by measuring the oxidation of NADPH to NADP^+ [29, 32].
Compounds 11–14 (10 µmol/L) were tested as NQO1 substrates using the NADPH recycling assay according to the literature method. The recombinant NQO1 (DT-diaphorase, EC 1.6.5.5, human recombinant, Sigma-Aldrich) was used, and the oxidation of NADPH to NADP^+ was measured at the absorption wavelength of 340 nm on the BioTek 800TS microplate reader (BioKom, Janki, Poland). Compounds were dissolved in dimethyl sulfoxide (2 µL) and added to the 96-well plate. The NQO1 protein (1.4 µg/mL) in 50 mmol/L potassium phosphate buffer (pH = 7.4) was added to each well (198 µL) (Nunc Thermo Fisher Scientific, Waltham, MA, USA). Once the 96-well plate was filled with the assay solutions, except the NADPH solution, it was placed into the instrument and left to sit for 5 min before starting the measurements. The enzymatic reaction was initiated by automatically dispensing the NADPH solution into the wells, and data were recorded at 10 s intervals for 5 min at 25 °C. The linear part of the absorbance vs. time graphs (the first 20 s to 1 min) was fitted, and the slopes were calculated. NADPH oxidation rates were compared with reactions lacking the tested compound. Initial velocities were calculated, and data were expressed as µmol NADPH/µmol NQO1/min. All reactions were carried out at least in triplicate.

MCF-7 cells = test: Cytotoxic activity, WST-1 assay, breast cancer MCF-7; type: cell-based, human; conditions: for SI (IC50 HFF-1/IC50 cancer line) MCF-7: HFF-1 vs MCF-7; for IC50: Homo sapiens, MCF7, breast cancer MCF-7, 72 h, WST-1
Text: (§1) Anticancer activity of compounds 11–14 was designated against following human cancer cell lines: melanoma (Colo-829), ovarian cancer (SK-OV-3), breast cancer (MDA-MB-231, T47D and MCF-7), lung cancer (A549) and normal fibroblasts (HFF-1). As a reference substance, the doxorubicin was used. The results are presented in Table 1 as IC50, where IC50 means the concentration of tested compounds (µM) causing the growth inhibition of 50% for given tumor cells. The negative value (Neg.) means that the IC50 is higher than 30 µM. Selectivity index (SI) as the ratio of the IC50 for normal fibroblast (HFF-1) to IC50 of the corresponding cell line, is presented in Table S2.
(§2) Compounds 7–14 and doxorubicin were tested for cytotoxic activity in vitro against panel of human cancer cell lines: melanoma (Colo-829, ATCC, Rockville, MD, USA), ovarian cancer (SK-OV-3, ATCC, Rockville, MD, USA), breast cancer (T47D, MCF-7, and MDA-MB-231, ATCC, Rockville, MD, USA) and lung cancer (A549, ATCC, Rockville, MD, USA). The cultured cells were kept at 37 °C and 5% CO2. The cells were seeded (5 × 10^4 cells/well/[…] DMEM supplemented with 10% FCS and streptomycin/penicillin) using 96-well plates (Nunc Thermo Fisher Scientific, Waltham, MA, USA). The tested compounds 7–14 with the concentration of 1–100 µg/mL DMSO were inducted with the cancer cells for 72 h. The WST-1-formazan (proliferation reagent WST-1 assay, Roche Diagnostics, Mannheim, Germany) was detected using a microplate reader at 450 nm. Results were expressed as a mean value of at least three independent experiments performed in triplicate.

HFF-1 cells = test: Cytotoxic activity, WST-1 assay, normal fibroblasts HFF-1; type: cell-based; conditions: Homo sapiens, normal fibroblasts HFF-1, 72 h
Text: as §1, §2

Colo-829 cells = test: Cytotoxic activity, WST-1 assay, melanoma Colo-829; type: cell-based, human; conditions: for SI (IC50 HFF-1/IC50 cancer line) Colo-829: HFF-1 vs Colo-829; for IC50: Homo sapiens, melanoma Colo-829, 72 h, WST-1
Text: as §1, §2

SK-OV-3 cells = test: Cytotoxic activity, WST-1 assay, ovarian cancer SK-OV-3; type: cell-based, human; conditions: for SI (IC50 HFF-1/IC50 cancer line) SK-OV-3: HFF-1 vs SK-OV-3; for IC50: Homo sapiens, ovarian cancer SK-OV-3, 72 h, WST-1
Text: as §1, §2

T47D cells = test: Cytotoxic activity, WST-1 assay, breast cancer T47D; type: cell-based, human; conditions: for SI (IC50 HFF-1/IC50 cancer line) T47D: HFF-1 vs T47D; for IC50: Homo sapiens, breast cancer T47D, 72 h, WST-1
Text: as §1, §2

MDA-MB-231 cells = test: Cytotoxic activity, WST-1 assay, breast cancer MDA-MB-231; type: cell-based, human; conditions: for SI (IC50 HFF-1/IC50 cancer line) MDA-MB-231: HFF-1 vs MDA-MB-231; for IC50: Homo sapiens, breast cancer MDA-MB-231, 72 h, WST-1
Text: as §1, §2

A549 cells = test: Cytotoxic activity, WST-1 assay, lung cancer A549; type: cell-based, human; conditions: for SI (IC50 HFF-1/IC50 cancer line) A549: HFF-1 vs A549; for IC50: Homo sapiens, lung cancer A549, 72 h, WST-1
Text: as §1, §2

T1 sequence (P15559 whole entry): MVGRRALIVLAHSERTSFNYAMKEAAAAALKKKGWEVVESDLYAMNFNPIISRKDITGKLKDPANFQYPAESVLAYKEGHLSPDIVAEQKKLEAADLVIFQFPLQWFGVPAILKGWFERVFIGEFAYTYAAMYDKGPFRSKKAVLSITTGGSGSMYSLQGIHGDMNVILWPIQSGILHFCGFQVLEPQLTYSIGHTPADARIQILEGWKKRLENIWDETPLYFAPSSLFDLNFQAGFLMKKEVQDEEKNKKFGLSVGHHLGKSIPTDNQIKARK

SMILES | NQO1 activity (enzymatic conversion rate) [1] | SI (IC50 HFF-1/IC50 cancer line) MCF-7 (MCF-7 cells) | IC50 (MCF-7 cells) | IC50 (HFF-1 cells) | SI (IC50 HFF-1/IC50 cancer line) Colo-829 (Colo-829 cells) | IC50 (Colo-829 cells) | SI (IC50 HFF-1/IC50 cancer line) SK-OV-3 (SK-OV-3 cells) | IC50 (SK-OV-3 cells) | melting point | SI (IC50 HFF-1/IC50 cancer line) T47D (T47D cells) | IC50 (T47D cells) | SI (IC50 HFF-1/IC50 cancer line) MDA-MB-231 (MDA-MB-231 cells) | IC50 (MDA-MB-231 cells) | SI (IC50 HFF-1/IC50 cancer line) A549 (A549 cells) | IC50 (A549 cells)
O=Cc1ccc2cccc(OC3=C(Cl)C(=O)c4ccncc4C3=O)c2n1 [Compound 13c, 8-[(6-chloro-5,8-dioxo-5,8-dihydroisoquinolin-7-yl)oxy]quinoline-2-carbaldehyde] | 318 ± 19 µmol NADPH/µmol NQO1/min | 14.89 | 890 ± 30 nM | 13200 ± 850 nM | 38.97 | 340 ± 280 nM | 41.41 | 320 ± 10 nM | 166 to 168 °C | 25.48 | 520 ± 80 nM | 17.67 | 750 ± 90 nM | 10.04 | 1320 ± 320 nM
Cc1ccc2c(n1)C(=O)C(Oc1cccc3ccc(C=O)nc13)=C(Cl)C2=O [Compound 12c, 8-[(6-chloro-2-methyl-5,8-dioxo-5,8-dihydroquinolin-7-yl)oxy]quinoline-2-carbaldehyde] | 470 ± 22 µmol NADPH/µmol NQO1/min | 0.94 | 19100 ± 950 nM | 17900 ± 1370 nM | 1.23 | 14600 ± 510 nM | 8.28 | 2160 ± 190 nM | 184 to 186 °C | 0.77 | 23300 ± 1120 nM | 0.85 | 21120 ± 110 nM | 5.70 | 3140 ± 430 nM
O=Cc1ccc2cccc(OC3=C(Cl)C(=O)c4ccccc4C3=O)c2n1 [Compound 14c, 8-[(3-chloro-1,4-dioxo-1,4-dihydronaphthalen-2-yl)oxy]quinoline-2-carbaldehyde] | 550 ± 62 µmol NADPH/µmol NQO1/min | – | > 30000 nM | 18000 ± 1750 nM | – | > 30000 nM | 71.84 | 250 ± 60 nM | 131 to 133 °C | 11.09 | 1620 ± 210 nM | 0.71 | 25100 ± 970 nM | 43.80 | 410 ± 60 nM
O=C1C(Cl)=C(Oc2cccc3ccc(Cl)nc23)C(=O)c2ncccc21 [Compound 11d, 6-chloro-7-[(2-chloroquinolin-8-yl)oxy]quinoline-5,8-dione] | 800 ± 64 µmol NADPH/µmol NQO1/min | 6.51 | 2110 ± 90 nM | 13700 ± 1270 nM | 9.48 | 1450 ± 240 nM | 8.81 | 1560 ± 110 nM | 123 to 125 °C | 6.54 | 2100 ± 110 nM | 6.77 | 2030 ± 50 nM | 8.04 | 1710 ± 30 nM
